Where “and” joins values, the source holds several entries; their conditions need not be identical. Equal entries are not always repeated.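 Dose response: 5 concentrations. Exposure: 48 h. Format: 96-well plates. Endpoint: linear interpolation; highest concentration if not reached. At the GI50, growth is halved. At the TGI there is no net growth.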
Assays:
Assay in all cases: inhibition of tumour cell growth, NCI panel, 48 h
[1] = test system: EKVX NSCLC
[2] = test system: SNB-75 CNS
[3] = test system: SK-MEL-28 melanoma
[4] = test system: NCI-H226 lung
[5] = test system: HCT-15 colon
[6] = test system: SK-MEL-2 melanoma
[7] = test system: SN12C renal
[8] = test system: DU-145 prostate

Compound | GI50 [1] [µM] | TGI [1] [µM] | GI50 [2] [µM] | TGI [2] [µM] | GI50 [3] [µM] | TGI [3] [µM] | GI50 [4] [µM] | TGI [4] [µM] | GI50 [5] [µM] | TGI [5] [µM] | GI50 [6] [µM] | TGI [6] | GI50 [7] [µM] | TGI [7] [µM] | GI50 [8] [µM] | TGI [8] [µM]
O=C(O)c1cn(C2CC2)c2cc(N3CCN(Cc4ccc5ccccc5c4O)CC3)c(F)cc2c1=O | > 100 | > 100 | 1.87 | 6.73 | 3.71 | > 100 | 3.14 | > 100 | 3.22 | > 100 | 5.11 | > 100 µM | 3.44 | > 100 |  | 
N#Cc1c(N)c(C#N)c2c(c1-c1ccc(Cl)cc1)COc1ccc(F)cc1-2 | 12.4 | > 50 | 25.6 | > 50 | > 50 | > 50 |  |  | 43.8 | > 50 | > 50 | > 50 µM | > 50 | > 50 | 14.7 | > 50
COc1ccc(/C=C2/CN(CCC#N)C/C(=C\c3ccc(OC)cc3)C2=O)cc1 |  |  |  |  | 1.99 | 4.3 | 21.3 | > 100 | 2.51 | 21.8 | 2.72 | 7.15 µM | 2.18 | 6.31 | 4.25 | > 100
OCc1ccc(N(Cc2ccc(F)cc2)CC2CCC2)cc1Cl |  |  | 12.4 | 25.3 | 14.8 | 28.3 | 0.178 | 0.525 | 11.7 | 25 | 11.2 | 25.2 µM | 12 | 24.7 | 15 | 28.5
COc1cc(Cn2c(SCC(=O)Nc3ccc(Cl)cc3)nc3ccccc3c2=O)cc(OC)c1OC |  |  | 1.58 | 4.89 | 11.4 | 50.9 | 4 | 26.2 | 17 | > 100 | 15.2 | 32.9 µM | 16.9 | > 100 | 18.1 | > 100
CCN(CCO)CCCOc1ccc2c(Nc3cc(CC(=O)Nc4cccc(F)c4)[nH]n3)ncnc2c1 | 84.1 | > 100 |  |  | 16.4 | 31.4 | 23.8 | > 100 | > 100 | > 100 | 16.9 | 35.4 µM and > 2.16 µM | 19.8 | > 100 | 34.5 | > 100
Cn1cc(C2=C(c3c(S(C)=O)n(C)c4ccccc34)C(=O)NC2=O)c2ccccc21 (stereo not given) |  |  | 5.8 | 22.3 | 19.1 | > 25 | 8.04 | > 25 | 7.38 | > 25 | 7.88 | > 25 µM | 14 | > 25 | 8.9 | > 25
Fc1ccc(-c2nn3c(COc4ccc(Cl)cc4Cl)nnc3s2)cc1Oc1ccccc1 | 23.7 | 67.3 | 32.2 | 91.1 | 15.8 | 42.9 | 21 | 74 | 43.2 | > 100 |  |  | 12.9 | 29.6 | 19.2 | 42.5
